{"source": "patent US20240299292A1", "about": "“STABLE SEMI-SOLID CHEWABLE GEL COMPOSITIONS AND METHODS OF MAKING AND USING THEREOF” (Seattle Gummy Company, priority 2021, published 2024)", "key": {"[1]": {"assay": "ITC association constant of cetirizine-β-cyclodextrin complex", "assay_type": "binding", "settings": "beta vs alpha and gamma cyclodextrin", "text": "Either the phenyl group or the 4-chlorophenyl group fit inside the ring structure. The inside cavity of cylcodextrins is largely hydrophobic which is favorable for aromatic systems that are also hydrophobic. The formation of the chelate structure is […] favorable due to electrostatic interactions of the pi system of the aromatic moiety with in the hydrophobic cavity and electronic interaction with the hydrogen atoms and […]. It is these electronic interactions between these systems of the cyclodextrin and the pi system that gives the favorable heat of formation."}, "[2]": {"settings": "ITC measurements; cited from earlier work"}, "[3]": {"settings": "ITC measurements; cited from earlier work", "remark": "listed apart in the source"}, "[4]": {"settings": "ITC measurements; cited from earlier work", "remark": "listed apart in the source"}}}
{"smiles": "O=C(O)COCCN1CCN(C(c2ccccc2)c2ccc(Cl)cc2)CC1", "note": "(stereo not shown) [cetirizine]", "values": [{"measurement": "formation constant of beta cyclodextrin complex relative to alpha and gamma cyclodextrin", "setting": "[1]", "result": "nearly four times"}, {"measurement": "association constant K(a), cetirizine-β-cyclodextrin complex", "setting": "[2]", "result": "5641 ± 358", "unit": "M⁻¹"}, {"measurement": "association constant K(a), cetirizine-α-cyclodextrin complex", "setting": "[3]", "result": "1434 ± 60", "unit": "M⁻¹"}, {"measurement": "association constant, cetirizine-γ-cyclodextrin complex", "setting": "[4]", "result": "1200 ± 50", "unit": "M⁻¹"}]}
